Assay results reported in article PMC9501280, “Anti-Inflammatory Activity of Soluble Epoxide Hydrolase Inhibitors Based on Selenoureas Bearing an Adamantane Moiety” (International Journal of Molecular Sciences, 2022).

Columns and labels:
E. coli MG1655 pSoxS-lux = test: Lux-biosensor, superoxide anion radicals (PsoxS); assay type: cell-based, Escherichia coli; details: compounds 1 μM to 1 mM; Standard = methyl viologen 100 μM
Procedure: (§1) The study was carried out with use of the following whole-cell bacterial biosensors: Escherichia coli MG1655 pOxyR-lux, E. coli MG1655 pDps, E. coli MG1655 pSoxS-lux, E. coli MG1655 pColD-lux, E. coli MG1655 pAlkA-lux, E. coli MG1655 pXen7, Bacillus subtilis 168 pNK-AlkA, B. subtilis 168 pNK-MrgA and B. subtilis 168 pNK-DinC. These biosensors by the quantitation of bacterial stress promoters’ activity, make it possible to determine oxidative stress caused by hydrogen peroxide and the superoxide anion radical, SOS response, DNA alkylation, or general toxicity in Gram-positive and Gram-negative B. subtilis and E. coli cells. We used concentrations from 1 μM to 1 mM of the studied compounds added to the suspension of biosensor cells. […]
(§2) The bioluminescence of cells was measured using a Synergy HT luminometer (Biotek, Winooski, VT, USA) at room temperature. Lux biosensors based on E. coli were grown to an early logarithmic phase (OD ≈ 0.1) to achieve a background luminescence approximately 100–1000 RLU at the beginning of the measurements. Lux biosensors based on B. subtilis were grown to a logarithmic phase with an optical density OD ≈ 0.6 (and background luminescence of about 10–500 RLU). […] The kinetics of change in luminescence was measured at room temperature. […]

[1] = tested on: human neuroblastoma cells (SH-SY5Y); test: MTT test on neuroblastoma cells; assay type: cell-based; details: 72 h, read-out: EC50 ± SEM, SH-SY5Y
Procedure: For compounds with evident anti-inflammatory activity (4a and 5b) and one outgroup compound (4g), MTT tests with the human fibroblast cells (MRC-5) and human neuroblastoma cells (SH-SY5Y) were carried out. The studied compounds were added in concentrations of 1, 3, 6, 12, 25, 50, and 100 μM.
The MTT test to determine the effect of cell viability was performed on the SH-SY5Y neuroblastoma cell line in a 96-well plate.
Cells grown to 80% confluence were trypsinized and plated at a density of 5000 cells per well (100 µL total well volume) and incubated overnight in a CO2 incubator. The next day, a 50 mM stock of studied compounds in DMSO was diluted in DMEM and added in the amount of 50 μL per well to obtain final concentrations of 1–100 μM. […] After that, the supernatant was discarded, 100 μL of DMSO was added and, after the dissolution of the formazan crystals, the absorbance at 570 nm was measured on a Synergy HT plate reader (Biotek, Winooski, VT, USA). […]
All experiments with SH-SY5Y, E. coli and B. subtilis cell cultures were performed in 3 independent repetitions. The error in the luminescence measurements was calculated using the standard deviation equation based on 3 repeats, its values on the graphs are shown with error bars. EC50 concentrations were determined using Combenefit software.

B. subtilis 168 pNK-MrgA = test: Lux-biosensor, hydrogen peroxide (PmrgA); assay type: cell-based, Bacillus subtilis; details: compounds 1 μM to 1 mM; Standard = hydrogen peroxide 100 μM
Procedure: as §1, §2

E. coli MG1655 pDps = assay type: cell-based, Escherichia coli; details: compounds 1 μM to 1 mM; Standard = hydrogen peroxide 100 μM
Procedure: (§3) The study was carried out with use of the following whole-cell bacterial biosensors: Escherichia coli MG1655 pOxyR-lux, E. coli MG1655 pDps, E. coli MG1655 pSoxS-lux, E. coli MG1655 pColD-lux, E. coli MG1655 pAlkA-lux, E. coli MG1655 pXen7, Bacillus subtilis 168 pNK-AlkA, B. subtilis 168 pNK-MrgA and B. subtilis 168 pNK-DinC. These biosensors by the quantitation of bacterial stress promoters’ activity, make it possible to determine oxidative stress caused by hydrogen peroxide and the superoxide anion radical, SOS response, DNA alkylation, or general toxicity in Gram-positive and Gram-negative B. subtilis and E. coli cells. We used concentrations from 1 μM to 1 mM of the studied compounds added to the suspension of biosensor cells.
(§4) pColD-lux―PcolD is induced by the SOS response; pDps―Pdps is activated in the presence of DNA-oxidizing agents; pSoxS-lux―PSoxS is induced in the presence of superoxide anion radicals; pOxyR-lux―PoxyR is induced in response to the appearance of hydrogen peroxide or organic peroxides; pAlkA-lux―PalkA is induced in response to DNA alkylation. pXen7 contains P. luminescens ZM1 lux genes controlled by its own promoter, which was used as a constitutive.
(§5) The bioluminescence of cells was measured using a Synergy HT luminometer (Biotek, Winooski, VT, USA) at room temperature. Lux biosensors based on E. coli were grown to an early logarithmic phase (OD ≈ 0.1) to achieve a background luminescence approximately 100–1000 RLU at the beginning of the measurements. Lux biosensors based on B. subtilis were grown to a logarithmic phase with an optical density OD ≈ 0.6 (and background luminescence of about 10–500 RLU). Biosensor cell cultures were divided into portions of 200 μL in a 96-well plate. Control toxicants and studied compounds were added to the cell suspension at 2 µL per well. Mitomycin C (at final concentration of 30 μM) for biosensors induced by the SOS response (PcolD and PdinC); methyl methanesulfonate (1 mM) for biosensors induced by DNA alkylation (PalkA); hydrogen peroxide (100 μM) for biosensors induced by presence of peroxides (PoxyR, Pdps and PmrgA) and methyl viologen (100 μM) for PsoxS activation by the presence of superoxide anion radicals. The kinetics of change in luminescence was measured at room temperature.
(§6) To unify the obtained results and eliminate the differences between the experiments due to different initial luminescence values, the luminescence value in each sample was normalized to the initial value according to Equation (1): (1) Lnorm(t, x)=L(t, x)/L(0, x) where Lnorm(t,x)—luminescence normalized to the initial value for the sample x, L(t,x) is the luminescence of sample x at time t and L(0,x) is the initial luminescence of sample x (immediately after addition of the studied compound or control toxicant). This normalization considers the optical density of the studied compound and the luminescence shielding caused by it, which appears immediately after the addition and facilitates the analysis of a slower effect associated with the general toxicity and activation of stress-inducible promoters for which the typical time of activation is in a range from several minutes to 3 h.
(§7) To determine the luminescence induction coefficient of biosensor cells, observed due to changes in the level of reporter genes transcription, the following equation was used:(2) Kind(t, x)=Lnorm(t, x)/Lnorm(t, contr) where Kind(t) is the calculated luminescence induction coefficient of biosensor cells in sample x at time point t, and Lnorm(t,contr) is the normalized luminescence in the control sample of the same biosensor cells without the addition of the studied compounds.

E. coli MG1655 pOxyR-lux = assay type: cell-based, Escherichia coli; details: compounds 1 μM to 1 mM; Standard = hydrogen peroxide 100 μM
Procedure: as §3, §4, §5, §6, §7

E. coli MG1655 pColD-lux = assay type: cell-based, Escherichia coli; details: compounds 1 μM to 1 mM; Standard = Mitomycin C 30 μM
Procedure: as §3, §4, §5, §6, §7

E. coli MG1655 pAlkA-lux = assay type: cell-based, Escherichia coli; details: compounds 1 μM to 1 mM; Standard = methyl methanesulfonate 1 mM
Procedure: as §3, §4, §5, §6, §7

SMILES | max(Kind), E. coli MG1655 pSoxS-lux (E. coli MG1655 pSoxS-lux) | EC50 [1] | max(Kind), B. subtilis 168 pNK-MrgA (B. subtilis 168 pNK-MrgA) | max(Kind), E. coli MG1655 pDps (E. coli MG1655 pDps) | max(Kind), E. coli MG1655 pOxyR-lux (E. coli MG1655 pOxyR-lux) | max(Kind), E. coli MG1655 pColD-lux (E. coli MG1655 pColD-lux) | max(Kind), E. coli MG1655 pAlkA-lux (E. coli MG1655 pAlkA-lux)
[Se]=C(Nc1ccccc1)NC1C2CC3CC(C2)CC1C3 (centres unmarked) [4g, 1-(Adamantan-2-yl)-3-phenylselenourea] | 1.0 ± 0.1 | 8.6 ± 0.9 µM | 1.2 ± 0.3 | 1.2 ± 0.4 | 1.12 ± 0.16 | 1.26 ± 0.31 | 1.05 ± 0.30
[Se]=C(Nc1ccccc1)NC12CC3CC(CC(C3)C1)C2 [4a, 1-(Adamantan-1-yl)-3-phenylselenourea] | 1.16 ± 0.19 | 16.5 ± 1.5 µM | 1.2 ± 0.5 | 1.15 ± 0.25 | 2.62 ± 0.7 | 1.5 ± 0.6 | 1.15 ± 0.33
